pIC50: −log10 of the molar value.
System: Human Umbilical Vein Endothelial cells (VEGF-stimulated HUVEC proliferation)
Experiment: HUVEC Proliferation Assay (VEGF-stimulated)
Format: cell-based
Details: VEGF 50 ng/mL, 72 h incubation, CyQuant readout, read-out: inhibited VEGF-stimulated HUVEC proliferation at a level below (IC50)
Procedure, shortened: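 Pooled-donor HUVECs (passage 2–3) seeded in DMEM+10% FBS for 22 h, then pre-treated 2–3 h with five-point, five-fold compound dilutions (0.25% DMSO final). Stimulated with 50 ng/mL VEGF (bFGF 20 ng/mL on separate plates) for 72 h at 37 °C. CyQuant fluorescence (485/530 nm) after freeze-thaw; IC50 from 4-parameter fit.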

## O=C(Nc1ccc(C(F)(F)C(F)(F)F)c(CN2CCOCC2)c1)c1cccnc1Nc1ccc2cn[nH]c2c1 [Example 110, 2-(1H-Indazol-6-ylamino)-N-(3-morpholin-4-ylmethyl-4-pentafluoroethyl-phenyl)-nicotinamide]
  pIC50: > 7.30

## O=C(Nc1ccc(C(F)(F)C(F)(F)C(F)(F)C(F)(F)F)cc1)c1cccnc1Nc1ccc2cn[nH]c2c1 [Example 20, [2-(1H-Indazol-6-ylamino)(3-pyridyl)]-N-[4-(1,1,2,2,3,3,4,4,4-nonafluorobutyl)phenyl]carboxamide]
  pIC50: > 7.30

## CC(C)(C)c1ccc(NC(=O)c2cccnc2Nc2ccc3cn[nH]c3c2Br)cc1 [Example 22, N-[4-(tert-Butyl)phenyl]{2-[(7-bromo(1H-indazol-6-yl))amino](3-pyridyl)}carboxamide]
  pIC50: > 7.30

## CC1(C)CN(S(C)(=O)=O)c2cc(NC(=O)c3cccnc3Nc3ccc4cn[nH]c4c3)ccc21 [Example 625, N-(3,3-dimethyl-1-(methylsulfonyl)-2,3-dihydro-1H-indol-6-yl)-2-(1H-indazol-6-ylamino)-3-pyridinecarboxamide]
  pIC50: > 7.30

## CN1CCC[C@@H]1COc1cc(NC(=O)c2cccnc2Nc2ccc3cn[nH]c3c2)cc(C(F)(F)F)c1 [Example 577, 2-(1H-Indazol-6-ylamino)-N-(3-((((2R)-1-methyl-2-pyrrolidinyl)methyl)oxy)-5-(trifluoromethyl)phenyl)-3-pyridinecarboxamide]
  pIC50: > 7.30

## CC(C)Oc1ccc(NC(=O)c2cccnc2Nc2ccc3cn[nH]c3c2)cc1 [Example 28, [2-(1H-Indazol-6-ylamino)(3-pyridyl)]-N-[4-(methylethoxy)phenyl]carboxamide]
  pIC50: > 7.30

## O=C(Nc1ccc(C(F)(F)F)cc1)c1cccnc1Nc1ccc2cn[nH]c2c1 [Example 50, [2-(1H-Indazol-6-ylamino)(3-pyridyl)]-N-[4-(trifluoromethyl)phenyl]carboxamide]
  pIC50: > 7.30

## O=C(Nc1ccc2c(c1)-c1nncn1CC2)c1cccnc1Nc1ccc2cn[nH]c2c1 [Example 39, [2-(1H-Indazol-6-ylamino)(3-pyridyl)]-N-(5,6,7-trihydro-1,2,4-triazolo[3,4-a]isoquinolin-2-yl)carboxamide]
  pIC50: > 7.30

## O=C(Nc1ccc(C(OC[C@@H]2CCCN2)(C(F)(F)F)C(F)(F)F)cc1)c1cccnc1Nc1ccc2cn[nH]c2c1 [Example 607, 2-(1H-Indazol-6-ylamino)-N-{4-[2,2,2-trifluoro-1-(pyrrolidin-2-ylmethoxy)-1-trifluoromethyl-ethyl]-phenyl}-nicotinamide]
  pIC50: > 7.30

## CS(=O)(=O)Nc1cc(NC(=O)c2cccnc2Nc2ccc3cn[nH]c3c2)cc(C(F)(F)F)c1 [Example 586, 2-(1H-Indazol-6-ylamino)-N-(3-((methylsulfonyl)amino)-5-(trifluoromethyl)phenyl)-3-pyridinecarboxamide]
  pIC50: > 7.30

## CN1CC=C(c2cc(NC(=O)c3cccnc3Nc3ccc4cn[nH]c4c3)ccc2C(C)(C)C)CC1 [Example 23]
  pIC50: > 7.30

## O=C(Nc1cccc(C(O)(C(F)(F)F)C(F)(F)F)c1)c1cccnc1Nc1cccc2c1CNC2=O [Example 609, 2-(1-Oxo-2,3-dihydro-1H-isoindol-4-ylamino)-N-[3-(2,2,2-trifluoro-1-hydroxy-1-trifluoromethyl-ethyl)-phenyl]-nicotinamide]
  pIC50: > 7.30

## COCCOCCOC(c1ccc(NC(=O)c2cccnc2Nc2ccc3cn[nH]c3c2)cc1)(C(F)(F)F)C(F)(F)F [Example 64]
  pIC50: > 7.30

## CC(C)(C)c1ccc(NC(=O)c2ccc(F)nc2Nc2ccc3cn[nH]c3c2)cc1 [Example 66, N-[4-(tert-Butyl)phenyl][6-fluoro-2-(1H-indazol-6-ylamino)(3-pyridyl)]carboxamide]
  pIC50: > 7.30

## Cc1cc(=O)[nH]c2cc(NC(=O)c3cccnc3Nc3ccc4cn[nH]c4c3)ccc12 [Example 14, [2-(1H-Indazol-6-ylamino)(3-pyridyl)]-N-(4-methyl-2-oxo-1,2-dihydroquinol-7-yl)carboxamide]
  pIC50: > 7.30

## O=C(Nc1ccc2c(C(F)(F)F)cc(=O)oc2c1)c1cccnc1Nc1ccc2cn[nH]c2c1 [Example 120, 2-(1H-Indazol-6-ylamino)-N-(2-oxo-4-trifluoromethyl-2H-chromen-7-yl)-nicotinamide]
  pIC50: > 7.30

## CN1CCN(c2cc(NC(=O)c3cccnc3Nc3ccc4cn[nH]c4c3)ccc2C(C)(C)C)CC1 [Example 31, N-[4-(tert-Butyl)-3-(4-methylpiperazinyl)phenyl][2-(1H-indazol-6-ylamino)(3-pyridyl)]carboxamide]
  pIC50: > 7.30

## CC(C)(C)OC(=O)N1CCC[C@H]1COc1cc(NC(=O)c2cccnc2Nc2ccc3cn[nH]c3c2)ccc1C(C)(C)C [Example 95, 1-Boc-2-(2-tert-Butyl-5-{[2-(1H-indazol-6-ylamino)-pyridine-3-carbonyl]-amino}-phenoxymethyl)-pyrrolidine]
  pIC50: > 7.30

## CC1(C)CN(CC2CCNCC2)c2cc(NC(=O)c3cccnc3Nc3ccc4cn[nH]c4c3)ccc21 [Example 41, N-[3,3-Dimethyl-1-(4-piperidylmethyl)indolin-6-yl][2-(1H-indazol-6-ylamino)(3-pyridyl)]carboxamide]
  pIC50: > 7.30

## CC(C)(C)c1ccc(NC(=O)c2cccnc2Nc2ccc3cn[nH]c3c2)cc1 [Example 8, N-[4-(tert-Butyl)phenyl][2-(1H-indazol-6-ylamino)(3-pyridyl)]carboxamide]
  pIC50: > 7.30

## O=C(Nc1ccc(C(O)(C(F)(F)F)C(F)(F)F)cc1)c1cccnc1Nc1ccc2cn[nH]c2c1 [Example 24]
  pIC50: > 7.30

## O=C(Nc1cc(OC[C@@H]2CCCN2)cc(C(F)(F)F)c1)c1cccnc1Nc1ccc2cn[nH]c2c1 [Example 97, 2-(1H-Indazol-6-ylamino)-N-[3-(2S-pyrrolidin-2-ylmethoxy)-5-trifluoromethyl-phenyl]-nicotinamide]
  pIC50: > 7.30

## CC1(C)CCNc2cc(NC(=O)c3cccnc3Nc3ccc4c(c3)C(=O)NC4)ccc21 [Example 629, N-(4,4-Dimethyl-1,2,3,4-tetrahydro-isoguinolin-7-yl)-2-(1-oxo-2,3-dihydro-1H-isoindol-4-ylamino)-nicotinamide]
  pIC50: > 7.30

## CC(C)(C)c1ccc(NC(=O)c2cccnc2Nc2cccc3c2CNC3=O)cc1 [Example 600, N-(4-tert-Butyl-phenyl)-2-(1-oxo-2,3-dihydro-1H-isoindol-4-ylamino)-nicotinamide]
  pIC50: > 7.30
